From patent publication US4307108A, “Method for lowering sorbitol levels using spiro-imides” (Pfizer Inc., priority 1979, dated 1981) come the findings set out here.

Structures can show the parent of a compound that is named as a salt.

The subject of data set [1] is sorbitol accumulation in the sciatic nerve of streptozotocinized (i.e., diabetic) rats. In words: reduction/inhibition of sorbitol accumulation in the sciatic nerve of acutely streptozotocinized (diabetic) rats. It is filed as in vivo. The settings on record: for Percent Inhibition (%): oral, 4, 8 and 24 hours after streptozotocin, sorbitol in sciatic nerve measured 27 hours after induction of diabetes, vs. untreated animal. As for the experimental part:
The activity of the compounds of the present invention, as agents for the control of chronic diabetic complications, is determined by their ability to successfully pass one or more of the following standard biological and/or pharmacological tests, viz., (1) measuring their ability to reduce or inhibit sorbitol accumulation in the sciatic nerve of acutely streptozotocinized (i.e., diabetic) rats; (2) measuring their ability to reverse already-elevated sorbitol levels in the sciatic nerve and lens of chronic streptozotocin-induced diabetic rats; (3) measuring their ability to prevent or inhibit galactitol formation in the lens of acutely galactosemic rats, and (4) measuring their ability to delay cataract formation and reduce the severity of lens opacities in chronic galactosemic rats.
The following spiro-imide compounds of Preparation C and Examples 1-5, respectively, were tested for their ability to reduce or inhibit sorbitol accumulation in the sciatic nerve of streptozotocinized (i.e., diabetic) rats essentially by the procedure described in U.S. Pat. No. 3,821,383. In the present study, the amount of sorbitol accumulation in the sciatic nerves was measured 27 hours after induction of diabetes. The compounds were administered orally at the dose levels indicated 4, 8 and 24 hours following the administration of streptozotocin. The results obtained in this manner are presented below in terms of percent inhibition (%) afforded by the test compound as compared to the case where no compound was administered (i.e., the untreated animal where sorbitol levels normally rise from approximately […]. tissue to as high as […]. tissue in the 27-hour test period): […]

Data set [2] can be described thus: water solubility of salt. The class given is physicochemical. The note with it: sodium salt, amorphous powder, freeze-dried.
Data set [3] can be described thus: toxic side effects in diabetic rats on oral administration. The class given is in vivo. The settings on record: dose level as low as 2.5 mg./kg. From the text: As previously indicated, the spiro-imide compounds of this invention reduce lens sorbitol levels in diabetic subjects. […] The other compounds of this invention also cause similar results. Furthermore, the herein described compounds can be administered by either the oral or parenteral routes of administration without causing any significant untoward pharmacological side reactions in the subjects to whom they are so administered. These compounds are ordinarily administered in dosages ranging from about 0.25 mg. to about 25 mg. per kg. of body weight per day, although variations will necessarily occur depending upon the actual condition of the subject being treated and the particular route of administration chosen.

As to `O=C1CC2(CCCc3ccccc32)C(=O)N1` (stereo not drawn) [Product of Prep. C, 3,4-dihydro-spiro-[2H-naphthalene-1,3'-pyrrolidine]-2',5'-dione], the “Percent Inhibition (%)” value in data set [1] (5.0 mg./kg.) came to 46%.

As for `O=C1CC2(CCc3ccccc32)C(=O)N1` (stereo not drawn) [sodium salt of 3,4-dihydro-spiro-[1H-indene-1,3'-pyrrolidino]-2',5'-dione], the solubility in water result in data set [2] is on record as “freely-soluble in water”.

On to `O=C1CC2(Cc3ccccc3C2)C(=O)N1` [Product of Ex. 3, 2,3-dihydro-spiro-[1H-indene-2,3'-pyrrolidine]-2',5'-dione], for which the “Percent Inhibition (%)” value in data set [1] (25 mg./kg.) is recorded as 33%.

With `O=C1CC2(CCCc3sccc32)C(=O)N1` (stereo not drawn) [Product of Ex. 4, 6,7-dihydro-spiro-[5H-benzo(b)thiophene-4,3'-pyrrolidine]-2',5'-dione], the “Percent Inhibition (%)” value in data set [1] (25 mg./kg.) is 51%.

Regarding `O=C1CC2(CCc3ccccc32)C(=O)N1` (stereo not drawn) [Product of Ex. 1, 2,3-dihydro-spiro-[1H-indene-1,3'-pyrrolidine]-2',5'-dione], the “Percent Inhibition (%)” value in data set [1] (2.5 mg./kg.) came to 28%. For the same compound, the “inhibit the formation of sorbitol levels in the sciatic nerve of diabetic rats” value in data set [1] (oral, dose level as low as 2.5 mg./kg., result in words) is on record as “to a significant degree”. For the same compound, the “substantial signs of toxic side effects” value in data set [3] is “without showing any substantial signs of toxic side effects”.

`O=C1CC2(CCOc3ccc(Cl)cc32)C(=O)N1` (stereo not drawn) [Product of Ex. 2, 6-chloro-2,3-dihydro-spiro-[4H-1-benzopyran-4,3'-pyrrolidine]-2',5'-dione]: in data set [1] (5.0 mg./kg.), the “Percent Inhibition (%)” value is 13%.

For the compound `O=C1CCC2(CCCc3ccccc32)C(=O)N1` (stereo not drawn) [Product of Ex. 5, 3,4-dihydro-spiro-[2H-naphthalene-1,3'-piperidine]-2',6'-dione], the “Percent Inhibition (%)” value in data set [1] (25 mg./kg.) stood at 23%.
